Source: patent publication US9994915B2, “miR-211 expression and related pathways in human melanoma” (Sanford-Burnham Medical Research Institute, priority 2010, dated 2018)

How the values were obtained:
Format in all cases: cell-based, human
IGFBP5 3′UTR = assay: luciferase reporter target inhibition assay with IGFBP5 3′UTR; settings: A375/211 cells
From the text: A putative miR-211 binding site with the sequence 5′-aaagggaa-3′ (SEQ ID NO:40) is present in the 3′-UTR of the IGFBP5 mRNA (SEQ ID NO:41; FIG. 26). In order to investigate the specificity and mechanism of miR-211 inhibition of IGFBP5, three luciferase reporter constructs were created, each having a different 3′-UTR on the luciferase gene. The constructs were as follows: (i) luciferase coding sequence with the luciferase 3′-UTR (“pcDNA6/Luc/NP3”), (ii) luciferase coding sequence with the IGFBP5 3′-UTR (“pcDNA6/Luc/NP3/IGFBP5 3′UTR”), and (iii) luciferase coding sequence with the IGFBP5 3′-UTR having a mutation in the miR-211 binding site (“pcDNA6/Luc/NP3/IGFBP5 3′UTR Mut”). The mutant miR-211 binding site is represented by SEQ ID NO:42 (5′-taagccta-3′). Vectors encoding these constructs were transfected into native A375 cells, A375 cells containing the miR-211-expressing vector (“A375/211”), or A375 cells having an empty vector (“A375/VO”). […] In the miR-211-expressing A375 cells, luciferase expression was unaffected for the constructs containing the native luciferase 3′UTR and the IGFBP5 3′UTR in which the miR-211 binding site had been altered. However, the luciferase activity was reduced by nearly 40% when the native IGFBP5 3′UTR was expressed.

WM1552C cells = assay: cell counts in hypoxic chamber (2% O2), WM1552C/211; settings: WM1552C/211 cells, hypoxic chamber 2% O2 (parental WM1552C about 64%)
From the text: To test under actual hypoxic conditions, both cell lines were placed into a hypoxic chamber containing 2% O2 prior to determination of cell counts. […] As in the DFO-simulated hypoxic condition assay, the presence of miR-211 caused the effect to be greatly exacerbated, reducing survival to about 29%.

WM1552C melanoma cells = assay: cell proliferation (cell counts) of WM1552C lines
Protocol: The over-expression of KCNMA1 is often associated with both cell proliferation and cell migration/invasion in various cancers. Therefore, the effects of depletion of miR-211 and associated over-expression of KCNMA1 on these process in melanoma cells were determined. Proliferation rates of melanoma cell lines stably transfected with the miR-211 expression cassette were compared with those of untransfected melanoma cells and cell lines transfected with the empty expression vector (FIG. 8A), respectively.
Assays were performed using WM1552C, WM1552C/VO, WM1552C/211(400), WM1552C/211(800), A375, A375/VO, and A375/211 cell lines. Cells were grown in log phase, trypsinized, counted using an automated cell counter (Cellometer®, Nexcelom Bioscience), and then seeded into 75 cm^2 flasks at 5×10^5 cells per flask (in triplicate). Media was changed after 6 hours, and cells were further fed every 48 hours (Complete Tu Media). At days 4, 10, 15, and 21, cells were trypsinized, counted (Cellometer®, Nexcelom Bioscience), and then reseeded. Each assay was performed in duplicate for all cell lines.

“miR-211: pre-miR-211 sequence stably expressed from plasmid pcDNA4/miR-211 in melanoma cells; mature sequence UUCCCUUUGUCAUCCUUCGCCU (SEQ ID NO: 15) (listed as Homo sapiens)” was tested, and the “reduction of luciferase activity” value (IGFBP5 3′UTR; native IGFBP5 3′UTR construct) was ~40%, the luciferase expression (IGFBP5 3′UTR; native luciferase 3′UTR or IGFBP5 3′UTR with altered miR-211 binding site) was “unaffected” and the “survival vs normoxic condition cells” value (WM1552C cells) was 34%. The “decrease in cell counts compared to WM1552C” value (WM1552C melanoma cells; WM1552C/211(400), after a 21-day period) was “greater than 30%”, the “decrease in cell proliferation compared to WM1552C” value (WM1552C melanoma cells; WM1552C/211(800), after a 21-day period) was “even greater decrease” and the “decrease in growth over the invasion assay period” value (WM1552C melanoma cells; WM1552C/211 cells, 48 hours) was 8-10%.
